The source of these data is patent US8932597B2 (priority 2008, dated 2015).

For one assay, the system named is HuM2e antibody 23K12. The assay is classed as binding, human.
Assay [1] relates to anti-M2 human monoclonal antibody Z3G1. The assay is classed as binding.

As for “491 (SLLTEVETLIRNEWGCRCNDSSD; epitope peptide) [compound 491]”, in the assay with HuM2e antibody 23K12, the “Signal (peptides that bind to 23K21 and 8I10)” value turned out to be 1109. Besides, the “Signal (peptides that show specific binding to Z3G1)” value in assay [1] turned out to be 2225.
As for “385 (CSLLTEVGCLCTCV; epitope peptide) [compound 385]”, the “Signal (peptides that bind to 23K21 and 8I10)” value in the assay on HuM2e antibody 23K12 stood at 1375. Moreover, the “Signal (peptides that show specific binding to Z3G1)” value in assay [1] was 2474.
As for “470 (MSLLTEVGCSLLTEC; epitope peptide) [compound 470]”, in the assay on HuM2e antibody 23K12, the “Signal (peptides that bind to 23K21 and 8I10)” value is given as 1227. Moreover, in assay [1], the “Signal (peptides that bind to Z3G1)” value is recorded as 2349.
As for “345 (CSLLTEVGSCLTEV; epitope peptide) [compound 345]”, in the assay with HuM2e antibody 23K12, the “Signal (peptides that bind to 23K21 and 8I10)” value turned out to be 1616. The “Signal (peptides that show specific binding to Z3G1)” value in assay [1] turned out to be 2703.
For “637 (SLLTEVETPIRNENGCRCNDSSD; epitope peptide) [compound 637]”, in that order: 768 and 2265.
Turning to “555 (SLLTEVETPIRNEWGCRCWDSSD; epitope peptide) [compound 555]”, the “Signal (peptides that bind to 23K21 and 8I10)” value in the assay on HuM2e antibody 23K12 worked out at 901. Moreover, in assay [1], the “Signal (peptides that bind to Z3G1)” value is 2462.
Regarding “473 (SLSTEVETPIRNEWGCRCNDSSD; epitope peptide) [compound 473]”, the “Signal (peptides that bind to 23K21 and 8I10)” value with HuM2e antibody 23K12 worked out at 1217. Further, the “Signal (peptides that show specific binding to Z3G1)” value in assay [1] was found to be 2052.
Turning to “357 (SLLTEVETPIPNEWGCRCNDSSD; epitope peptide) [compound 357]”, the “Signal (peptides that bind to 23K21 and 8I10)” value in the assay on HuM2e antibody 23K12 stood at 1548. In addition, in assay [1], the “Signal (peptides that show specific binding to Z3G1)” value amounted to 2515.
For “268 (SLLTEVETPIRNECGCRCNDSSD; epitope peptide) [compound 268]”, in that order: 682 and 2554.
Regarding “416 (SLLTEVETPIRNEWGCRCNDTSD; epitope peptide) [compound 416]”, the “Signal (peptides that bind to 23K21 and 8I10)” value with HuM2e antibody 23K12 was 794. For the same substance, the “Signal (peptides that bind to Z3G1)” value in assay [1] is reported as 2394.
Turning to “386 (SLLTEVETPIRNEVGCRCNDSSD; epitope peptide) [compound 386]”, the “Signal (peptides that bind to 23K21 and 8I10)” value in the assay on HuM2e antibody 23K12 was 1371. Moreover, the “Signal (peptides that show specific binding to Z3G1)” value in assay [1] turned out to be 2411.
As for “510 (SLRTEVETPIRNEWGCRCNDSSD; epitope peptide) [compound 510]”, the “Signal (peptides that bind to 23K21 and 8I10)” value in the assay on HuM2e antibody 23K12 is reported as 1047. For the same substance, in assay [1], the “Signal (peptides that show specific binding to Z3G1)” value was found to be 1034.
For “671 (SLLTEVETPIRNEPGCRCNDSSD; epitope peptide) [compound 671]”, in that order: 735 and 2279.
The matching figures for “564 (SLLTEVELPIRNEWGCRCNDSSD; epitope peptide) [compound 564]”: 886 and 2407.
On to “343 (MSLLTEVGMSLLTEC; epitope peptide) [compound 343]”, for which the “Signal (peptides that bind to 23K21 and 8I10)” value in the assay on HuM2e antibody 23K12 is listed as 1630. Moreover, in assay [1], the “Signal (peptides that bind to Z3G1)” value is 2831.
Turning to “616 (SLLTEVETPIRNPWGCRCNDSSD; epitope peptide) [compound 616]”, the “Signal (peptides that bind to 23K21 and 8I10)” value in the assay with HuM2e antibody 23K12 is reported as 808. Moreover, in assay [1], the “Signal (peptides that show specific binding to Z3G1)” value turned out to be 2288.
For the substance “341 (CSLLTEVCSLLTEC; epitope peptide) [compound 341]”, the “Signal (peptides that bind to 23K21 and 8I10)” value in the assay with HuM2e antibody 23K12 was 1644. In addition, the “Signal (peptides that show specific binding to Z3G1)” value in assay [1] stood at 1122.
The matching figures for “482 (CLCTCVGSLLTEV; epitope peptide) [compound 482]”: 1178 and 1953.
With “689 (SLLTEVETPIRNEWGCRCGDSSD; epitope peptide) [compound 689]”, the “Signal (peptides that bind to 23K21 and 8I10)” value with HuM2e antibody 23K12 was 724. The “Signal (peptides that bind to Z3G1)” value in assay [1] came out at 2343.
Regarding “587 (SLLTEVETPIRCEWGCRCNDSSD; epitope peptide) [compound 587]”, the “Signal (peptides that bind to 23K21 and 8I10)” value with HuM2e antibody 23K12 worked out at 850. Moreover, the “Signal (peptides that show specific binding to Z3G1)” value in assay [1] was found to be 1956.
With “363 (MSLLTECGCSLLTEV; epitope peptide) [compound 363]”, the “Signal (peptides that bind to 23K21 and 8I10)” value in the assay with HuM2e antibody 23K12 is recorded as 1500. In assay [1], the “Signal (peptides that bind to Z3G1)” value amounted to 1235.
As for “326 (SLLTEVETPIRNEWGCRCNDSSD; epitope peptide) [compound 326]”, in the assay with HuM2e antibody 23K12, the “Signal (peptides that bind to 23K21 and 8I10)” value is 1749. The “Signal (peptides that show specific binding to Z3G1)” value in assay [1] was 2476.
The matching figures for “300 (SLLTEVETKIRNEWGCRCNDSSD; epitope peptide) [compound 300]”: 1960 and 2485.
For “691 (SLLTEVETPIRNEWGCRMNDSSD; epitope peptide) [compound 691]”, in that order: 722 and 2356.
The matching figures for “529 (SLLTEVETNIRNEWGCRCNDSSD; epitope peptide) [compound 529]”: 978 and 2253.
Regarding “461 (SLLTEVETPLRNEWGCRCNDSSD; epitope peptide) [compound 461]”, the “Signal (peptides that bind to 23K21 and 8I10)” value in the assay with HuM2e antibody 23K12 is listed as 1268. Further, in assay [1], the “Signal (peptides that show specific binding to Z3G1)” value was 2239.
Consider “620 (SLLTEVETPIRFEWGCRCNDSSD; epitope peptide) [compound 620]”, for which, in the assay with HuM2e antibody 23K12, the “Signal (peptides that bind to 23K21 and 8I10)” value came out at 806. Also, the “Signal (peptides that show specific binding to Z3G1)” value in assay [1] is 2364.
“359 (MSLLTEVGMSCLTEV; epitope peptide) [compound 359]”: in the assay with HuM2e antibody 23K12, the “Signal (peptides that bind to 23K21 and 8I10)” value is 1535. In addition, the “Signal (peptides that bind to Z3G1)” value in assay [1] turned out to be 2793.
As for “201 (CEVETPIRNEWGSRSNCSLLTEVETC; epitope peptide) [compound 201]”, in the assay with HuM2e antibody 23K12, the “Signal (peptides that bind to 23K21 and 8I10)” value is listed as 1007. The “Signal (peptides that show specific binding to Z3G1)” value in assay [1] amounted to 2288.
On to “436 (SLLTEVETPI; epitope peptide) [compound 436]”, for which the “Signal (peptides that bind to 23K21 and 8I10)” value in the assay on HuM2e antibody 23K12 worked out at 1084. Further, the “Signal (peptides that bind to Z3G1)” value in assay [1] came to 2465.
The matching figures for “418 (SLLTEVETPIRNEWGCRCNDWSD; epitope peptide) [compound 418]”: 929 and 2491.
For “696 (SLLTEVETPIRNEHGCRCNDSSD; epitope peptide) [compound 696]”, the “Signal (peptides that bind to 23K21 and 8I10)” value in the assay with HuM2e antibody 23K12 was found to be 719. Also, the “Signal (peptides that show specific binding to Z3G1)” value in assay [1] was determined as 2398.
On to “399 (SLLTEVETPIRNEWGCRCNTSSD; epitope peptide) [compound 399]”, for which the “Signal (peptides that bind to 23K21 and 8I10)” value in the assay with HuM2e antibody 23K12 was determined as 795. The “Signal (peptides that bind to Z3G1)” value in assay [1] is 2483.
With “484 (SLVTEVETPIRNEWGCRCNDSSD; epitope peptide) [compound 484]”, the “Signal (peptides that bind to 23K21 and 8I10)” value with HuM2e antibody 23K12 was 1175. The “Signal (peptides that show specific binding to Z3G1)” value in assay [1] was 2029.
“330 (SLLTEVETPIRNEWGCRCNDYSD; epitope peptide) [compound 330]”: the “Signal (peptides that bind to 23K21 and 8I10)” value in the assay on HuM2e antibody 23K12 came out at 1694. For the same substance, the “Signal (peptides that bind to Z3G1)” value in assay [1] came to 2445.
With “524 (SLLTEVETPIDNEWGCRCNDSSD; epitope peptide) [compound 524]”, the “Signal (peptides that bind to 23K21 and 8I10)” value in the assay with HuM2e antibody 23K12 came out at 1001. Besides, in assay [1], the “Signal (peptides that show specific binding to Z3G1)” value came out at 2337.
Take “477 (SLLTECGSLLCEV; epitope peptide) [compound 477]”: in the assay on HuM2e antibody 23K12, the “Signal (peptides that bind to 23K21 and 8I10)” value came to 1206. The “Signal (peptides that show specific binding to Z3G1)” value in assay [1] came to 2403.
For “431 (SLLTEVETPIRNEWGCRCNDSTD; epitope peptide) [compound 431]”, the “Signal (peptides that bind to 23K21 and 8I10)” value in the assay on HuM2e antibody 23K12 turned out to be 701. Further, the “Signal (peptides that bind to Z3G1)” value in assay [1] is 2205.
As to “504 (SLLTEVETPIRNEWGFRCNDSSD; epitope peptide) [compound 504]”, the “Signal (peptides that bind to 23K21 and 8I10)” value in the assay with HuM2e antibody 23K12 turned out to be 1057. Further, the “Signal (peptides that show specific binding to Z3G1)” value in assay [1] stood at 2349.
The matching figures for “695 (SLLTEVEVPIRNEWGCRCNDSSD; epitope peptide) [compound 695]”: 719 and 2286.
For “679 (SLLTEVETPIRNEWGCECNDSSD; epitope peptide) [compound 679]”, in that order: 730 and 2148.
The matching figures for “600 (SLLTEVETPIRNEWGLRCNDSSD; epitope peptide) [compound 600]”: 831 and 2389.
As for “377 (SLKTEVETPIRNEWGCRCNDSSD; epitope peptide) [compound 377]”, in the assay with HuM2e antibody 23K12, the “Signal (peptides that bind to 23K21 and 8I10)” value came out at 1434. In addition, the “Signal (peptides that show specific binding to Z3G1)” value in assay [1] was 1453.
The matching figures for “598 (SLLTEVETPIRNEWGCRKNDSSD; epitope peptide) [compound 598]”: 835 and 2435.
For “370 (SLLTEVETPIRNEWGERCNDSSD; epitope peptide) [compound 370]”, in that order: 1474 and 2286.
With “337 (SLLTEVETPIRNEWGCRCNYSSD; epitope peptide) [compound 337]”, in the assay on HuM2e antibody 23K12, the “Signal (peptides that bind to 23K21 and 8I10)” value is recorded as 1666. Moreover, in assay [1], the “Signal (peptides that bind to Z3G1)” value is given as 2475.
The matching figures for “371 (MSLCTEVGMSLLTEV; epitope peptide) [compound 371]”: 1468 and 2691.
For the substance “595 (SLLTEVETPIRNEWGWRCNDSSD; epitope peptide) [compound 595]”, in the assay with HuM2e antibody 23K12, the “Signal (peptides that bind to 23K21 and 8I10)” value is 838. The “Signal (peptides that show specific binding to Z3G1)” value in assay [1] was determined as 2439.
Turning to “285 (MSLLTEVGMSLLTCV; epitope peptide) [compound 285]”, the “Signal (peptides that bind to 23K21 and 8I10)” value in the assay with HuM2e antibody 23K12 is listed as 2389. Further, the “Signal (peptides that bind to Z3G1)” value in assay [1] is recorded as 2872.
For “663 (MCLCTCVGMSLLTEV; epitope peptide) [compound 663]”, in that order: 746 and 2509.
